Like-named read-outs stand apart in the source and are kept apart here.
What was measured:
[1] = Dog urinary excretion and metabolite profiles after oral capsule of [14C]DCDQ; type: in vivo, beagle dogs
Description: Blood samples were collected from the jugular vein at 2, 4, 8, 24 and 48 hour after dose administration into tubes containing potassium EDTA as the anticoagulant and then placed on ice. Aliquots of 50 μL were removed for combustion and determination of radioactivity content. Plasma was immediately obtained from the remaining blood by centrifugation at 4° C. Urine samples were collected into tubes on dry ice at intervals of 0-8, 8-24 and 24-48 hour post-dose. Fecal samples were collected at intervals of 0-8, 8-24 and 24-48 hour post-dose at room temperature, and were homogenized. The biological specimens were stored at approximately −70° C. until analysis.
(§1) For plasma profiles, a TopCount NXT radiometric microplate reader (Perkin Elmer) was used to analyze the radioactivity in collected HPLC fractions. The limit of detection by TopCount was about 1 ng equivalent/mL. A Flo-One β Model A525 radioactivity detector (Perkin Elmer) with a 250 μL LQTR flow cell was used to acquire data for urine and fecal samples. The flow rate of Ultima Flow M scintillation fluid was 1 mL/min, providing a mixing ratio of scintillation cocktail to mobile phase of 5:1. The limits of detection by Flo-One detector were about 200 ng equivalents/mL for urine and 12 ng equivalents/g for feces.
Urine was analyzed for radioactivity concentration and analyzed by HPLC with radioactivity flow detection for metabolite profiles by direct injection to the HPLC column. LC/MS analyses for metabolite identification were also carried out with urine samples.
(§2) A Waters model 2690 HPLC system (Waters Corp., Milford, Mass.) with a built-in autosampler was used for analysis. Separations were accomplished on a Phenomenex Luna C18(2) column (150×2.0 mm, 5 μm) (Phenomenex, Torrance, Calif.). The sample chamber of the autosampler was maintained at 4° C., while the column was at ambient temperature of about 20° C. A variable wavelength UV detector set to monitor 250 nm and a Flo-One β Model A525 radioactivity detector were used for data acquisition. The HPLC mobile phase consisted of 10 mM ammonium acetate, pH 4.5 (A) and acetonitrile (B), and was delivered at 0.2 mL/min. Chromatographic condition A was used for dose analysis, while condition B was used for analysis of urine and plasma, brain and fecal extracts.

[2] = Metabolites of DCDQ identified in dogs by LC/MS analysis (Table 26); type: in vivo, beagle dogs; conditions: P = plasma, U = urine, B = brain, F = feces
Description: An Agilent Model 1100 HPLC system (Agilent Technologies, Palo Alto, Calif.) including an autosampler and diode array UV detector was used for LC/MS analysis. The UV detector was set to monitor 200 to 400 nm. For selected LC/MS analysis, radiochromatograms were acquired using a β-Ram model 3 radioactivity flow detector (IN/US Systems Inc., Tampa, Fla.) equipped with a solid scintillant flow cell. LC conditions were the same as the condition B described above.
The mass spectrometer used for metabolite characterization was a Micromass Q-TOF-2 quadrupole time-of-flight hybrid mass spectrometer (Waters). The mass spectrometer was equipped with an electrospray ionization (ESI) interface and operated in the positive ionization mode. Collision energy settings of 5 and 30 eV were used for full MS and MS/MS scans, respectively. Settings for the mass spectrometer are listed below.

[3] = Metabolites of DCDQ identified in rats by LC/MS analysis (Table 18); type: in vivo, Sprague-Dawley rats; conditions: P = plasma, U = urine, B = brain, F = feces
Description: An Agilent Model 1100 HPLC system (Agilent Technologies, Wilmington, Del.) including an autosampler and diode array UV detector was used for LC/MS analysis of plasma and urine samples. The UV detector was set to monitor 200 to 400 nm. For selected LC/MS analyses, radiochromatograms were acquired using a β-Ram model 3 radioactivity flow detector (IN/US Systems Inc., Tampa, Fla.) equipped with a solid scintillant flow cell. Fecal samples were also analyzed using a Waters Alliance model 2690 HPLC system. It was equipped with a built-in autosampler and a model 996 diode array UV detector set to 210-350 nm. The HPLC flow was split between a Radiomatic model 150TR flow scintillation analyzer (Perkin Elmer) and the mass spectrometer. Other HPLC conditions were the same as condition B described above.
The mass spectrometer used for metabolite characterization for plasma and urine was a Micromass Q-TOF-2 quadrupole time-of-flight hybrid mass spectrometer (Waters). The mass spectrometer was equipped with an electrospray ionization (ESI) interface and operated in the positive ionization mode. Collision energy settings of 5 and 30 eV were used for full MS and MS/MS scans, respectively. Settings for the mass spectrometer are listed below.
A Micromass Quattro Micro mass spectrometer (Waters) was also used to analyze the fecal samples. It was equipped with an electrospray ionization (ESI) interface and operated in the positive ionization mode. Settings for the mass spectrometer are listed below.
LC/MS/MS in the selected reaction-monitoring (SRM) mode (LC/SRM) was conducted with the triple quadruple mass spectrometer to monitor DCDQ and its metabolites in fecal samples. The transitions monitored are listed below.

[4] = Dog plasma metabolite profiles after single 15 mg/kg oral capsule of [14C]DCDQ; type: in vivo, beagle dogs
Description: as §1
Plasma samples were analyzed for metabolite profiles by HPLC. Aliquots of plasma were mixed with two volumes of cold methanol containing 0.1% trifluoroacetic acid (TFA), placed on ice for about 2 minutes and then centrifuged. The supernatant fluid was transferred to a clean tube and evaporated at 22° C. under nitrogen in a Zymark TurboVap LV (Caliper Life Sciences, Hopkinton, Mass.) to a volume of about 0.3 mL. The residue was centrifuged, the supernatant volume measured and extraction efficiency determined by analysis of duplicate 20 μL aliquots for radioactivity. A 200 μL aliquot of the supernatant was injected onto the HPLC column and the effluent was collected at 20 second intervals into 96-well Lumaplates (Perkin Elmer). The plates were dried overnight in an oven at 40° C. and analyzed by a TopCount. Plasma extracts were also analyzed by LC/MS.
as §2

[5] = male, beagle, dog, plasma, oral, 15 mg/kg, 2 hr, dog 1, read-out: Estimated plasma concentration in dogs
[6] = male, beagle, dog, plasma, oral, 15 mg/kg, 2 hr, dog 2, read-out: Estimated plasma concentration in dogs
[7] = male, beagle, dog, plasma, oral, 15 mg/kg, 4 hr, dog 1, read-out: Estimated plasma concentration in dogs
[8] = male, beagle, dog, plasma, oral, 15 mg/kg, 4 hr, dog 2, read-out: Estimated plasma concentration in dogs
[9] = male, beagle, dog, plasma, oral, 15 mg/kg, 8 hr, dog 1, read-out: Estimated plasma concentration in dogs
[10] = male, beagle, dog, plasma, oral, 15 mg/kg, 24 hr, dog 1, read-out: Estimated plasma concentration in dogs
[11] = 0-8 hr, dog no. not printed (dog 1 by footnote a)

| Compound | Chromatographic distribution of radioactivity in dog urine ([1]; 8-24 hr, dog 1) [%] | Chromatographic distribution of radioactivity in dog urine ([1]; 8-24 hr, dog 3) [%] | Chromatographic distribution of radioactivity in dog urine ([1]; 24-48 hr, Mean) [%] | Chromatographic distribution of radioactivity in dog urine ([1]; 24-48 hr, dog 1) [%] | Chromatographic distribution of radioactivity in dog urine ([1]; 24-48 hr, dog 3) [%] | Chromatographic distribution of radioactivity in dog urine ([1]; 24-48 hr, dog 4) [%] | Matrix [2] | Chromatographic distribution of radioactivity in dog plasma ([4]; 2 hr, dog 1) [%] | Chromatographic distribution of radioactivity in dog plasma ([4]; 2 hr, dog 2) [%] | Chromatographic distribution of radioactivity in dog plasma ([4]; 4 hr, dog 1) [%] | Chromatographic distribution of radioactivity in dog plasma ([4]; 4 hr, dog 2) [%] | Chromatographic distribution of radioactivity in dog plasma ([4]; 8 hr, dog 1) [%] | Estimated plasma concentration in dogs ([4]; 8 hr, dog 2) | Estimated plasma concentration in dogs ([4]; 8 hr, dog 3) | Chromatographic distribution of radioactivity in dog plasma ([4]; 24 hr, dog 1) [%] | Estimated plasma concentration in dogs ([4]; 48 hr, dog 1) | Estimated plasma concentration in dogs ([4]; 48 hr, dog 3) | concentration at 2 h [4, 6] [ng/mL] | concentration at 4 h [4, 8] [ng/mL] | concentration at 8 h [4, 9] [ng/mL] | other results |
| --- | --- | --- | --- | --- | --- | --- | --- | --- | --- | --- | --- | --- | --- | --- | --- | --- | --- | --- | --- | --- | --- |
| c1cc2c3c(c1)[C@H]1CCC[C@H]1CN3CCNC2 [DCDQ, (9aR,12aS)-4,5,6,7,9,9a,10,11,12,12a-decahydro-cyclopenta[c][1,4]diazepine[6,7,1-ij]quinoline, reference compound] | 9.5 | 11 | 3.4 | 3.8 | 3.0 | 6.9 | P, U, F | 11 | 1.9 | 11 | 21 | 2.7 | BQL | BQL | 2.6 | BQL | BQL | 23.2 | 345 | 14.5 | Matrix [3]: P, U, F; Estimated plasma concentration in dogs ([4]; 24 hr, dog 2): BQL; Chromatographic distribution of radioactivity in dog plasma ([4]; 24 hr, dog 3): 2.3%; Estimated plasma concentration in dogs ([4]; 48 hr, dog 2): BQL; concentration at 2 h [4, 5]: 39.6 ng/mL; concentration at 4 h [4, 7]: 52.5 ng/mL; concentration at 24 h [4, 10]: 39.6 ng/mL; concentration at 24 h ([4]; male, beagle, dog, plasma, oral, 15 mg/kg, 24 hr, dog 3, read-out: Estimated plasma concentration in dogs): 43.8 ng/mL |
| [O-][N+]12CCN=Cc3cccc(c31)[C@H]1CCC[C@H]1C2 (stereo partly shown) [Metabolite M5, DCDQ imine N-oxide] |  |  |  | 8.5 |  |  |  | 12 | 2.9 | 6.6 | 5.3 | 4.0 | BQL | BQL |  | BQL | BQL | 36.4 | 86.6 | 21.7 | Chromatographic distribution of radioactivity in dog urine [1, 11]: 5.9%; Chromatographic distribution of radioactivity in dog urine ([1]; 24-48 hr, dog 2): 4.0%; Estimated plasma concentration in dogs ([4]; 24 hr, dog 1): BQL; Estimated plasma concentration in dogs ([4]; 24 hr, dog 2): BQL; Estimated plasma concentration in dogs ([4]; 24 hr, dog 3): BQL; Chromatographic distribution of radioactivity in dog plasma ([4]; 48 hr, dog 2): 2.8%; concentration at 2 h [4, 5]: 43.1 ng/mL; concentration at 4 h [4, 7]: 33.1 ng/mL; concentration at 48 h ([4]; male, beagle, dog, plasma, oral, 15 mg/kg, 48 hr, dog 2, read-out: Estimated plasma concentration in dogs): 18.9 ng/mL |
| O=C(O)[C@H]1O[C@@H](OC(=O)N2CCN3C[C@@H]4CCC[C@@H]4c4cccc(c43)C2)[C@H](O)[C@@H](O)[C@@H]1O [Metabolite M6, carbamoyl glucuronide of DCDQ] | 6.1 | 3.6 | 4.7 | 5.8 | 4.3 | 5.9 | P, U |  | 19 |  | 13 | 7.0 | BQL | BQL | 17 | BQL | BQL | 239 | 215 | 37.9 | Chromatographic distribution of radioactivity in dog urine [1, 11]: 13%; Chromatographic distribution of radioactivity in dog urine ([1]; 8-24 hr, Mean): 5.8%; Chromatographic distribution of radioactivity in dog urine ([1]; 8-24 hr, dog 2): 7.6%; Chromatographic distribution of radioactivity in dog urine ([1]; 24-48 hr, dog 2): 3.5%; Estimated plasma concentration in dogs ([4]; 2 hr, dog 1): BQL; Estimated plasma concentration in dogs ([4]; 4 hr, dog 1): BQL; Chromatographic distribution of radioactivity in dog plasma ([4]; 24 hr, dog 2): 5.6%; Estimated plasma concentration in dogs ([4]; 24 hr, dog 3): BQL; Estimated plasma concentration in dogs ([4]; 48 hr, dog 2): BQL; concentration at 24 h [4, 10]: 258 ng/mL; concentration at 24 h ([4]; male, beagle, dog, plasma, oral, 15 mg/kg, 24 hr, dog 2, read-out: Estimated plasma concentration in dogs): 62.1 ng/mL |

From patent US20060111305A1, “Metabolites of certain [1,4]diazepino[6,7,1-ij]quinoline derivatives and methods of preparation and use thereof” (Wyeth, priority 2004, published 2006)
